Test: Log P by HPLC on reversed phase columns (EEC directive 79/831 Annex V.A8)
Type: physicochemical
Details: method [a]: LC-UV, acidic range, 0.1% formic acid in water and acetonitrile
How it was run: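 Reversed-phase HPLC per EEC 79/831 Annex V.A8, LC-UV with 10→95% acetonitrile linear gradient; eluent [a] 0.1% formic acid (acidic), [b] 0.001 M ammonium acetate (neutral), [c] 0.1% phosphoric acid (acidic). Calibrated with C3–C16 straight-chain alkan-2-ones, linear interpolation of retention times; multiple values joined by "+".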

LogP | SMILES
2.45^[a] | Cc1c(C(=O)NC2CCSC2=O)sc(C#N)c1Br (stereo not drawn) [I.0829]
2.63^[a] | O=C(NC1CCOC1=O)c1sc(Cl)c(Cl)c1Br (stereo not drawn) [I.0839]
2.39^[a] | Cc1c(C(=O)N[C@H]2CCSC2=O)sc(C#N)c1Br [I.0866]
3.24^[a] | O=C(N[C@H]1CCSC1=O)c1sc(Br)c(Br)c1Cl [I.0867]
6.46^[a] | N#CC1(NC(=O)c2sc(Br)c(Br)c2Cl)CCC(C2CCCCC2)CC1 (stereo not drawn) [I.0869]
4.97^[a] | N#CC1(NC(=O)c2sc(Br)c(Br)c2Cl)CCC(c2ccccc2)CC1 (stereo not drawn) [I.0870]
2.59^[a] | O=C(N[C@H]1CCOC1=O)c1sc(Cl)c(Cl)c1Br [I.0931]
2.62^[a] | O=C(N[C@H]1CCOC1=O)c1sc(Br)c(Br)c1Cl [I.0932]
2.29^[a] | O=C(N[C@H]1CCCNC1=O)c1sc(Cl)c(Br)c1Cl [I.0939]
2.30^[a] | O=C(N[C@H]1CCCNC1=O)c1sc(Cl)c(Cl)c1Br [I.0944]
2.99^[a] | O=C(NC1CCCCNC1=O)c1sc(Cl)c(Cl)c1Br (stereo not drawn) [I.0945]
2.56^[a] | O=C(NC1CCOC1=O)c1sc(Cl)c(Br)c1Cl (stereo not drawn) [I.0949]
2.05^[a] | O=C(N[C@H]1CCCNC1=O)c1sc(Br)c(Br)c1F [I.0950]
2.68^[a] | O=C(NC1CCCCNC1=O)c1sc(Br)c(Br)c1F (stereo not drawn) [I.0951]
2.31^[a] | O=C(N[C@H]1CCCNC1=O)c1sc(Br)c(Br)c1Cl [I.0956]
2.99^[a] | O=C(NC1CCCCNC1=O)c1sc(Br)c(Br)c1Cl (stereo not drawn) [I.0957]
3.25^[a] | O=C(NC1CCSC1=O)c1sc(Br)c(Br)c1Cl (stereo not drawn) [I.1005]
3.25^[a] | O=C(NC1CCSC1=O)c1sc(Cl)c(Cl)c1Br (stereo not drawn) [I.1006]
4.78^[a] | N#CC1(NC(=O)c2sc(Br)c(Br)c2F)CCC(c2ccccc2)CC1 (stereo not drawn) [I.1009]
3.24^[a] | O=C(N[C@H]1CCSC1=O)c1sc(Cl)c(Cl)c1Br [I.1011]
6.13^[a] | N#CC1(NC(=O)c2sc(Br)c(Br)c2F)CCC(C2CCCCC2)CC1 (stereo not drawn) [I.1012]
2.58^[a] | O=C(NC1CCOC1=O)c1sc(Br)c(Br)c1Cl (stereo not drawn) [I.1031]
1.92^[a] | Cc1c(C(=O)NC2CCOC2=O)sc(C#N)c1Br (stereo not drawn) [I.1034]
2.46^[a] | O=C(NC1CCOC1=O)c1sc(Br)c(Br)c1C(F)F (stereo not drawn) [I.1066]
1.66^[a] | N#Cc1c(Br)sc(C(=O)O)c1Cl [II.001]
1.59^[a] | N#Cc1c(Cl)sc(C(=O)O)c1Cl [II.002]

LogP | SMILES
2.39^[a] | O=C(O)c1sc(Cl)c(Cl)c1C(F)F [II.003]
2.44^[a] | O=C(O)c1sc(Br)c(Br)c1C(F)(F)F [II.004]
2.14^[a] | O=C(O)c1sc(Cl)c(Br)c1F [II.005]
2.46^[a] | O=C(O)c1sc(Br)c(Br)c1C(F)F [II.006]
2.03^[a] | Cc1c(C(=O)O)sc(Br)c1C#N [II.007]
1.94^[a] | Cc1c(C(=O)O)sc(Cl)c1C#N [II.008]
2.18^[a] | O=C(O)c1sc(Br)c(Cl)c1F [II.009]
2.51^[a] | O=C(O)c1sc(Br)c(Cl)c1Cl [II.010]
2.57^[a] | O=C(O)c1sc(Cl)c(Br)c1Br [II.011]
2.44^[a] | O=C(O)c1sc(Cl)c(Br)c1Cl [II.012]
2.08^[a] | Cc1sc(C(=O)O)c(F)c1Br [II.013]
2.80^[a] | Cc1c(C(=O)O)sc(Cl)c1Br [II.014]
2.75^[a] | Cc1c(C(=O)O)sc(Br)c1Cl [II.015]
1.95^[a] | Cc1c(C(=O)O)sc(C#N)c1Cl [II.016]
2.86^[a] | Cc1c(C(=O)O)sc(I)c1Br [II.017]
2.92^[a] | Cc1c(C(=O)O)sc(Br)c1I [II.018]
4.08^[a] | COC(=O)c1sc(Br)c(Br)c1C(F)(F)F [II.019]
3.47^[a] | COC(=O)c1sc(Br)c(Cl)c1F [II.020]
2.82^[a] | COC(=O)c1sc(Cl)c(C#N)c1Cl [II.022]
3.77^[a] | COC(=O)c1sc(Cl)c(Cl)c1C(F)F [II.023]
4.77^[a] | Cc1sc(C(=O)OCC(C)C)c(F)c1Br [II.024]
3.47^[a] | COC(=O)c1sc(Cl)c(Br)c1F [II.025]
4.02^[a] | COC(=O)c1sc(Cl)c(Br)c1Br [II.026]
3.94^[a] | COC(=O)c1sc(Cl)c(Br)c1Cl [II.027]
3.06^[a] | COC(=O)c1sc(Br)c(C#N)c1C [II.029]
5.03^[a] | CCOC(=O)c1sc(I)c(Br)c1C [II.030]

LogP | SMILES
5.03^[a] | CCOC(=O)c1sc(Br)c(I)c1C [II.031]
5.00^[a] | CCOC(=O)c1sc(Cl)c(Br)c1C [II.032]
1.33^[a] | N#Cc1sc(C(=O)O)cc1Cl [II.034]
1.94^[a] | O=C(O)c1cc(Br)c(F)s1 [II.035]
1.41^[a] | N#Cc1sc(C(=O)O)cc1Br [II.036]
1.89^[a] | O=C(O)c1cc(F)c(Cl)s1 [II.037]
2.16^[a] | Cc1cc(C(=O)O)sc1Cl [II.038]
1.02^[a] | O=C(O)c1cc(F)c(Br)s1 [II.039]
2.23^[a] | O=C(O)c1cc(Cl)c(Br)s1 [II.040]
1.44^[a] | N#Cc1cc(C(=O)O)sc1Cl [II.041]
2.28^[a] | O=C(O)c1cc(Br)c(Cl)s1 [II.043]
1.73^[a] | N#Cc1c(Br)sc(C(=O)O)c1Br [II.044]
2.44^[a] | COC(=O)c1cc(C#N)c(Cl)s1 [II.045]
3.29^[a] | COC(=O)c1cc(Cl)c(Br)s1 [II.047]
4.21^[a] | CCOC(=O)c1cc(Br)c(Cl)s1 [II.048]
3.04^[a] | COC(=O)c1cc(F)c(Br)s1 [II.049]
5.28^[a] | CC(C)COC(=O)c1cc(Cl)c(Br)s1 [II.050]
3.19^[a] | COC(=O)c1sc(C#N)c(Br)c1C [II.051]
2.63^[a] | COC(=O)c1cc(Br)c(C#N)s1 [II.052]
3.07^[a] | COC(=O)c1sc(C#N)c(Br)c1Br [II.054]
4.57^[a] | CCOC(=O)c1sc(I)c(Cl)c1Cl [II.056]
3.01^[a] | O=C(O)c1sc(I)c(Cl)c1Cl [II.057]
3.49^[a] | COC(=O)c1sc(C)c(Cl)c1Cl [II.058]
3.44^[a] | COC(=O)c1sc(F)c(Br)c1Cl [II.059]
5.28^[a] | CC(C)COC(=O)c1sc(Cl)c(Br)c1F [II.060]
1.66^[a] | N#Cc1sc(C(=O)O)c(Br)c1Br [II.061]

LogP | SMILES
3.63^[a] | CCOC(=O)c1cc(Cl)c(F)s1 [II.062]
4.03^[a] | CCOC(=O)c1sc(C)c(Cl)c1Cl [II.063]
2.16^[a] | O=C(O)c1cc(Cl)c(F)s1 [II.064]
2.49^[a] | Cc1sc(C(=O)O)c(Cl)c1Cl [II.065]
4.02^[a] | CCOC(=O)c1sc(F)c(Br)c1Cl [II.066]
4.08^[a] | CCOC(=O)c1sc(Cl)c(Br)c1F [II.067]
3.50^[a] | CCOC(=O)c1sc(C#N)c(Cl)c1Cl [II.068]
3.26^[a] | COC(=O)c1sc(Br)c(Br)c1C#N [II.069]
2.41^[a] | O=C(O)c1sc(Br)c(Cl)c1Br [II.070]
4.01^[a] | COC(=O)c1sc(Br)c(Cl)c1Br [II.071]
3.10^[a] | CCOC(=O)c1cc(Cl)c(C#N)s1 [II.072]
4.59^[a] | CCOC(=O)c1sc(Cl)c(C)c1Cl [II.073]
2.76^[a] | Cc1c(Cl)sc(C(=O)O)c1Cl [II.074]
3.54^[a] | COC(=O)c1sc(Br)c(C(F)F)c1Br [II.075]
2.19^[a] | O=C(O)c1sc(F)c(Br)c1Cl [II.076]
2.99^[a] | COC(=O)c1sc(Cl)c(Br)c1C#N [II.077]
2.26^[a] | O=C(O)c1sc(Br)c(C(F)F)c1Br [II.078]
2.99^[a] | COC(=O)c1sc(C#N)c(Cl)c1Cl [II.079]
3.02^[a] | COC(=O)c1sc(C#N)c(Br)c1Cl [II.080]
2.46^[a] | O=C(O)c1cc(Br)c(C(F)(F)F)s1 [II.081]
4.40^[a] | CCOC(=O)c1cc(Br)c(C(F)(F)F)s1 [II.082]
1.70^[a] | N#Cc1c(C(=O)O)sc(Cl)c1Br [II.083]
3.15^[a] | COC(=O)c1sc(C)c(Br)c1F [II.084]
3.56^[a] | COC(=O)c1sc(F)c(Br)c1Br [II.086]

SMILES | LogP
COC(=O)c1sc(Br)c(C#N)c1Cl [II.021] | 2.87^[a]

Same assay, conditions: method [a]: LC-UV, acidic range, 0.1% formic acid in water and acetonitrile; listed as 1.0958

LogP | SMILES
2.28^[a] | O=C(NC1CCOC1=O)c1sc(Br)c(Br)c1F (stereo not drawn) [I.0958]

Same assay, conditions: reversed phase HPLC columns, method [a]: LC-UV, acidic range, 0.1% formic acid in water and acetonitrile

chromatographic logP | SMILES
3.54 | CCOC(=O)c1sc(Cl)c(Cl)c1C#N [II.053, ethyl 4,5-dichloro-3-cyanothiophene-2-carboxylate]
3.81 | COC(=O)c1sc(Br)c(Br)c1C(F)F [II.055, methyl 4,5-dibromo-3-(difluoromethyl)thiophene-2-carboxylate]

Same assay, conditions: reversed phase HPLC columns, value in preparation example, method not marked

chromatographic logP | SMILES
1.69 | NC(=O)CNC(=O)c1sc(Br)c(Br)c1F [I.0894, N-(2-amino-2-oxoethyl)-4,5-dibromo-3-fluorothiophene-2-carboxamide]
2.25 | NC(=S)CNC(=O)c1sc(Br)c(Br)c1F [I.0896, N-(2-amino-2-sulfanylideneethyl)-4,5-dibromo-3-fluorothiophene-2-carboxamide]
4.24 | CCOC(=O)C(C)(C)NC(=O)c1sc(Cl)c(Cl)c1Br [I.1062, ethyl N-[(3-bromo-4,5-dichloro-2-thienyl)carbonyl]-2-methylalaninate]
3.54 | CCOC(=O)c1sc(Cl)c(Cl)c1C#N [II.053, ethyl 4,5-dichloro-3-cyanothiophene-2-carboxylate]
3.81 | COC(=O)c1sc(Br)c(Br)c1C(F)F [II.055, methyl 4,5-dibromo-3-(difluoromethyl)thiophene-2-carboxylate]

Reference: patent US12642270B2, “Substituted thiophene carboxamides, thiophene carboxylic acids and derivatives thereof” (Bayer Aktiengesellschaft, priority 2019, dated 2026)
